Results from patent publication US20260174875A1 (Novo Nordisk A/S, priority 2023, published 2026).
pEC50: −log10 of the molar value. Read-outs that look alike come from different tables or passages of the source. Numbered stars: 1 amine (or outer) side, 2 acyl side, 3 side chain; on linkers, the order of the positions; unused ones are H or OH. Square brackets hold non-standard residues; d marks the D form. Side chains are listed from the residue outwards. * marks the point of attachment. C20 diacid = O=C(O)CCCCCCCCCCCCCCCCCCC(=O)*; C18 diacid = O=C(O)CCCCCCCCCCCCCCCCC(=O)*; C16 diacid = O=C(O)CCCCCCCCCCCCCCC(=O)*; γGlu = O=C(O)[C@H](CCC(=O)[*:2])N[*:1]; AEEA = NCCOCCOCC(=O)O; Aib = CC(C)(N)C(=O)O

Legend:
[1] = target: T1, human GLP-1 receptor (hGLP-1R) (Homo sapiens, UniProt P43220); assay: GLP-1 receptor assay, method A (CRE-luciferase reporter, BHK cells); format: cell-based
T1 construct: expressed in transfected cells
T1 sequence (P43220 24-463): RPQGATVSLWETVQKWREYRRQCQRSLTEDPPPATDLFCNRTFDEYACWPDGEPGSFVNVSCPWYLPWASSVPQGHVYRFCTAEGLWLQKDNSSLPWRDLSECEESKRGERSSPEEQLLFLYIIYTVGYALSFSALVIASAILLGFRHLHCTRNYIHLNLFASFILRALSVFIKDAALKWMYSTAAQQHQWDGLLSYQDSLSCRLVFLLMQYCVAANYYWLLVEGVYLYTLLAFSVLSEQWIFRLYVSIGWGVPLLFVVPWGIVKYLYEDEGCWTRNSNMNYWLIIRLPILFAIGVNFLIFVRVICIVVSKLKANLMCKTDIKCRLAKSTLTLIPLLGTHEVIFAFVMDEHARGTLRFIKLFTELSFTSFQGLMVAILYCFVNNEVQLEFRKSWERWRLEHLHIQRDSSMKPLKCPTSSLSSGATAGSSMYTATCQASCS
Summary of the method: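 Run in parallel with no HSA and with 1% (w/v) HSA to gauge albumin effects; assay buffer also held 1% ovalbumin, 10 mM HEPES and 0.1% Pluronic F-68. Thawed hGLP-1R BHK CRE-Luc cells incubated 3 h at 37 °C, then luciferase luminescence measured (steadylite Plus).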

[2] = target: T2, human GIP receptor (hGIPR) (Homo sapiens, UniProt P48546); assay: GIP receptor assay, method A (CRE-luciferase reporter, BHK cells); format: cell-based
T2 construct: expressed in transfected cells
T2 sequence (P48546 22-466): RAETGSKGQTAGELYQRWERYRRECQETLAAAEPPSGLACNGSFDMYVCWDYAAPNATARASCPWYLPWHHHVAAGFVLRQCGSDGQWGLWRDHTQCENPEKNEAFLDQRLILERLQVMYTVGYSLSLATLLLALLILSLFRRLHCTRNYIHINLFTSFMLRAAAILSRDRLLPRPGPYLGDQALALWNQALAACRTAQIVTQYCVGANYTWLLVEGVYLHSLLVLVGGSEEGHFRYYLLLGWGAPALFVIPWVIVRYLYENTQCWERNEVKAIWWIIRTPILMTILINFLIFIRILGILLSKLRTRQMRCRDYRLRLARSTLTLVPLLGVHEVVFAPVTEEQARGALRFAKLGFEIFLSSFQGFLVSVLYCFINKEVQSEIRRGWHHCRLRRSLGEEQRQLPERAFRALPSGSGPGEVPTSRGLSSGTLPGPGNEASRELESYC
Summary of the method: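 BHK cells co-expressing hGIPR and a CRE-luciferase reporter, plated 21-23 h before assay, stimulated 3 h at 37 °C with compounds (7-point 10-fold titration, duplicates) in ovalbumin-containing DMEM buffer with or without 1% HSA final. Luminescence read; EC50 (pM) from four-parameter logistic fit with shared Hill slope.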

[3] = hGLP-1R Potency, 1% HSA, EC50, method A, in the presence of 1% HSA
[4] = method A, absence of HSA, read-out: hGLP-1R Potency, no HSA, EC50
[5] = hGIPR Potency, 1% HSA, EC50, method A, in the presence of 1% HSA
[6] = method A, absence of HSA, read-out: hGIPR Potency, no HSA, EC50

| Substance | pEC50 [1, 3] | pEC50 [1, 4] | pEC50 [2, 5] | pEC50 [2, 6] | potency ratio (A/B): highest EC50 divided by lowest EC50 over hGLP-1R, hGIPR, hAMYR3 ([1]; absence of HSA, <50 = balanced tri-agonist) | pEC50 ([1]; hGLP-1R Potency, no HSA, EC50, method A, absence of HSA) | pEC50 ([2]; hGIPR Potency, no HSA, EC50, method A, absence of HSA) |
| --- | --- | --- | --- | --- | --- | --- | --- |
| H[Aib]HGTFTSDYSILLEEQAAREFIEWLLAGGPSK([AEEA-AEEA-γGlu-C18 diacid])GEASQLSTAALGRLSAELHQLATLPRTETGSGSP-NH2 [Compound 64] | 10.17 | 11.43 | 10.00 | 11.69 |  |  |  |
| H[Aib]HGTFTSDYSILLEEQAAREFIEWLLAGGPSK([AEEA-AEEA-γGlu-C16 diacid])GAPPPSGGGEASHLSTAQTARLSAELHRLADLPRTETGSGSP-NH2 [Compound 61] | 10.83 |  | 10.80 |  |  | 11.55 | 11.89 |
| Y[Aib]EGTFTSDYSILLEEQAAREFIEWLLAGGPSK([AEEA-AEEA-γGlu-C16 diacid])GAPPPSGGGEASELSTAALGRLSAELHELATLPRTETGSGSP-NH2 [compound 10] | 9.61 | 10.86 | 10.37 | 11.68 | 7 |  |  |

Continued by rising pEC50 [1, 3], values first:

| pEC50 [1, 3] | pEC50 [1, 4] | pEC50 [2, 5] | pEC50 [2, 6] | potency ratio (A/B): highest EC50 divided by lowest EC50 over hGLP-1R, hGIPR, hAMYR3 ([1]; absence of HSA, <50 = balanced tri-agonist) | Substance | pEC50 ([1]; hGLP-1R Potency, no HSA, EC50, method A, absence of HSA) | pEC50 ([2]; hGIPR Potency, no HSA, EC50, method A, absence of HSA) |
| --- | --- | --- | --- | --- | --- | --- | --- |
| 8.63 | 10.92 | 9.47 | 11.86 |  | Y[Aib]EGTFTSDYSILLEEQAAREFIEWLLAGGPSK([AEEA-AEEA-γGlu-C18 diacid])GGQAPGQAPGEASHLSTAQTQRLSAELHELATLPRTETGSGSP-NH2 [Compound 38] |  |  |
| 10.44 | 10.78 | 11.13 | 11.68 |  | Y[Aib]EGTFTSDYSILLEEQAAREFIEWLLAGGPSSGALQAPGQAPLASHLSTAQTQRLSAELHK([AEEA-AEEA-γGlu-C20 diacid])LATLPRTETGSGSP-NH2 [Compound 99] |  |  |
| 10.75 | 11.39 | 10.98 | 11.46 |  | H[Aib]HGTFTSDYSILLEEQAAREFIEWLLAGGPSSGAGQAPGQAPGASHLSTAQTQRLSAK([AEEA-AEEA-γGlu-C18 diacid])LHRLATLPRTETGSGSP-NH2 [Compound 78] |  |  |
| 10.78 | 11.39 | 11.07 | 11.60 |  | H[Aib]HGTFTSDYSILLEEQAAREFIEWLLAGGPSSGAGQAPGQAPLASHLSTAQTQRLSAELHK([AEEA-AEEA-γGlu-C18 diacid])LATLPRTETGSGSP-NH2 [Compound 93] |  |  |
